# Assay results as given in patent publication US20120114636A1, “LOW MOLECULAR WEIGHT CYCLIN E (LMW-E) AS A BIOMARKER FOR PERSONALIZATION OF CANCER THERAPIES” (The Board of Regents of the University of Texas System, priority 2009, published 2012).
# Tests used:
# MCF-7/Ac1 cells [1] = assay: S-phase fraction by flow cytometry of adenovirus-infected cells; type: cell-based, human; conditions: 1 μM letrozole with 25 nM AD
# Procedure: (§1) Flow cytometry analysis. Cells were pelleted and resuspended in 1.5 ml of PBS, then fixed in 3.5 ml of 95% ethanol overnight at −20° C. After being washed, the pellets were resuspended in a solution of PBS containing 10 μg/ml propidium iodide, 20 μg/ml RNase A, 0.5% Tween 20, and 0.5% BSA and incubated at 37° C. for 30 min. The profiles of cells in the G0-G1, S, and G2-M phases of the cell cycle were analyzed at the M. D. Anderson Cancer Center Cytometry Core Facility on a FACS Caliber machine equipped with Cellquest or ModFit software.
# LMW cyclin E, but not full-length cyclin E, overexpressing MCF-7/Ac1 cells partially override the letrozole inhibition of AD-induced S-phase entry and AD-induced CDK2 protein levels. Since overexpression of LMW cyclin E deregulates the G1 to S transition, the inventors interrogated the role of full-length and LMW cyclin E in letrozole response. To this end, the inventors examined the sensitivity of cyclin E overexpressing MCF-7/Ac1 cells to the growth inhibitory effect of letrozole using adenoviruses to overexpress full-length and LMW cyclin E (FIGS. 24A-24D). MCF-7/Ac1 cells were cultured in charcoal stripped serum media (CSSM) for 4 days before infecting them with 4000 m.o.i. of either LacZ, full-length cyclin E (cyclin EL) or LMW cyclin E (cyclin E-T1 and cyclin E-T2). Twenty-four hours later, cells were left either untreated, treated with 25 nM AD alone, or treated with 25 nM AD plus 1 μM letrozole for an additional 3 days (FIGS. 24A-24B). Following the treatment, cells were enumerated or subjected to flow cytometry analysis.
# MCF-7/Ac1 cells were cultured in IMEM with 10% charcoal-stripped serum medium (CSSM) without phenol red and with 600 μg/ml of G418 for 4 days before plating. Triplicate wells of 6-well plates were then infected with the indicated adenoviruses (at 4000 m.o.i.) 24 hours before drug treatment. Cells were then left untreated (E2W, estrogen withdrawal) or treated with 25 nM AD (AD) or treated with 25 nM AD and 1 μM letrozole (AD+Let) and collected 3 days later for cell number. Cell growth is expressed as the percentage of the cells compared with the control cells (25 nM AD treated cells). […] MCF-7/Ac1 cells were treated as described in A, and collected for flow cytometry analysis. Histograms represent the S-phase fraction expressed as the percentage of the cells in S-phase compared with the control cells (25 nM AD treated cells). […] The same cell lysates as in A and B were subjected to western blot analysis (50 μg of protein) with cyclin E and CDK2 antibodies. The bar graph represents the densitometric values of the phosphorylated CDK2 bands. […] Left, MCF-7/Ac1 cells were cultured in IMEM with 10% charcoal-stripped serum medium (CSSM) without phenol red and with 600 μg/ml of G418 for 4 days before plating. Cells were then infected with the indicated adenoviruses (at 4000 m.o.i.) 24 hours before drug treatment. Cells were then treated with 25 nM AD and 1 μM letrozole and collected 3 days later for cell number. […] Columns, mean of two to three experiments, each in triplicates; bars, S.D.
# MCF-7/Ac1 cells [2] = assay: Cell cycle analysis by flow cytometry (PI); type: cell-based, human; conditions: letrozole with 25 nM AD, concentration not given
# Procedure: Cell cycle analysis. MCF-7/Ac1 cells were cultured in estrogen-deprived media with or without 25 nM 4-androstenedione, and treated with different concentrations of aromatase inhibitors. Untreated and drug treated cells were collected 72 hours later for flow cytometry and lysates were prepared for western blot and kinase assays.
# as §1
# FIGS. 22A-22C show the effect of aromatase inhibitor treatment on proliferative response and cell cycle distribution of MCF-7/Ac1 cells. Cells were cultured in IMEM with 10% charcoal-stripped serum medium (CSSM) without phenol red and with 600 μg/ml of G418 for 4 days before plating. Cells (100,000) were seeded in 100 mm dishes and, 24 hrs later, were exposed for 3 days to the specific treatment. […] Cell growth is expressed as the percentage of the cells compared with the control cells (25 nM AD treated cells, 575,000 cells at day 3). Columns, mean of two to three experiments, each in triplicates; bars, S.D. *, P<0.05, when compared to cells only treated with 25 nM AD; n.s, not significant. CSSM, untreated cells cultured in charcoal-stripped serum medium without phenol red and with 600 μg/ml of G418.
compound,measurement,setting,value
N#Cc1ccc(C(c2ccc(C#N)cc2)n2cncn2)cc1 [letrozole],decrease in number of cells in S phase,MCF-7/Ac1 cells [1]; LacZ-infected cells,37%
same,decrease in number of cells in S phase,MCF-7/Ac1 cells [1]; cyclin E-T1-infected cells,16%
same,decrease in number of cells in S phase,MCF-7/Ac1 cells [1]; cyclin E-T2-infected cells,21%
same,decrease in number of cells in S phase,MCF-7/Ac1 cells [1]; cyclin EL-infected cells,42%
same,decrease in number of cells in S phase,MCF-7/Ac1 cells [1]; uninfected cells,62%
same,cells in G0/G1,MCF-7/Ac1 cells [2],61.2+/−1.5%
same,cells in S phase,MCF-7/Ac1 cells [2],13.1+/−2.3%
